Measurements reported in EPA's ToxRefDB 2.

Assays:
rat [1] = conditions: Combined chronic toxicity/carcinogenicity, sprague dawley, Oral, Feed, dose end: 2 year
mouse [2] = conditions: Combined chronic toxicity/carcinogenicity; cd1; Oral; Feed; dose end: 95 week; group: systemic; systemic / in life observation / body weight / body weight gain
rabbit [3] = conditions: Prenatal developmental toxicity study, new zealand white, Oral, Gavage/Intubation, dose end: 19 GD
dog [4] = conditions: Chronic toxicity, beagle, Oral, Feed, dose end: 52 week
mouse [5] = conditions: Combined chronic toxicity/carcinogenicity, cd1, Oral, Feed, dose end: 104 week, group: systemic
rat [6] = conditions: Prenatal developmental toxicity study; other; Oral; Gavage/Intubation; dose end: 19 GD; group: developmental; developmental / developmental malformation / ureter / hydroureter
rat [7] = conditions: Prenatal developmental toxicity study, Osborne-Mendel, Oral, Water, dose end: 20 GD
mouse [8] = conditions: Multigenerational reproductive toxicity study; cd1; Oral; Feed; dose end: 1 generation; group: parental; systemic / in life observation / food consumption / food consumption
rat [9] = conditions: Multigenerational reproductive toxicity study, sprague dawley, Oral, Feed, dose end: 1 generation
rat [10] = conditions: Combined chronic toxicity/carcinogenicity; sprague dawley; Oral; Feed; dose end: 118 week; group: systemic; systemic / in life observation / clinical signs / feces, discoloration
dog [11] = conditions: Chronic toxicity; beagle; Oral; Feed; dose end: 52 week; group: systemic; systemic / hematology / erythrocyte (rbc) count differential / erythrocyte (rbc) + systemic / hematology / platelet / platelet + systemic / …
rabbit [12] = conditions: Prenatal developmental toxicity study, new zealand white, Oral, Gavage/Intubation, dose end: 19 GD; remark: listed apart in the source
rat [13] = conditions: Multigenerational reproductive toxicity study, sprague dawley, Oral, Feed, dose end: 2 generation
rabbit [14] = conditions: Prenatal developmental toxicity study, new zealand white, Oral, Gavage/Intubation, dose end: 18 GD
rat [15] = conditions: Prenatal developmental toxicity study, sprague dawley, Oral, Gavage/Intubation, dose end: 15 GD
rat [16] = conditions: Combined chronic toxicity/carcinogenicity, sprague dawley, Oral, Feed, dose end: 24 month, group: systemic
[17] = group: cholinesterase, cholinesterase / cholinesterase / cholinesterase / brain cholinesterase (che)
[18] = group: cholinesterase, cholinesterase / cholinesterase / cholinesterase / brain cholinesterase (che) + cholinesterase / cholinesterase / cholinesterase / plasma …
[19] = group: systemic, systemic / in life observation / body weight / body weight + systemic / in life observation / body weight / body weight gain
[20] = group: developmental, developmental / developmental landmark / incisor eruption / incisor eruption + developmental / developmental malformation / bone / absent + …
[21] = group: maternal, systemic / in life observation / body weight / body weight gain + systemic / in life observation / food consumption / food efficiency
[22] = group: maternal, systemic / in life observation / body weight / body weight gain + systemic / in life observation / food consumption / food efficiency + …
[23] = group: cholinesterase, cholinesterase / cholinesterase / cholinesterase / cholinesterase (che) + cholinesterase / cholinesterase / cholinesterase / plasma …
[24] = group: systemic, systemic / in life observation / clinical signs / [other] + systemic / in life observation / clinical signs / labored respiration + systemic…
[25] = systemic / organ weight / thyroid gland / absolute + systemic / organ weight / thyroid gland / relative to body weight
[26] = group: developmental, developmental / developmental malformation / bone / bipartite ossification + developmental / developmental malformation / bone / incomplete …
[27] = group: maternal, systemic / in life observation / water consumption / water consumption + reproductive / reproductive performance / reproductive performance …
[28] = group: offspring, developmental / developmental landmark / vaginal opening / vaginal opening + systemic / in life observation / clinical signs / nocturnal …
[29] = group: offspring, developmental / offspring survival late / [other] / [other] + developmental / developmental landmark / vaginal opening / vaginal opening + …
[30] = group: parental, systemic / in life observation / body weight / body weight
[31] = group: reproductive, reproductive / reproductive performance / pregnancy / pregnancy
[32] = group: developmental, developmental / developmental malformation / bone / fused
[33] = group: maternal, systemic / in life observation / body weight / body weight gain
[34] = group: offspring, systemic / in life observation / body weight / offspring (pup) weight
[35] = group: parental, systemic / in life observation / body weight / body weight + systemic / in life observation / body weight / body weight gain + systemic / in…
[36] = group: developmental, developmental / developmental malformation / bone / delayed ossification + developmental / developmental malformation / bone / fused + …
[37] = group: maternal, reproductive / offspring survival early / live fetuses / live fetuses + systemic / organ weight / uterus / nos
[38] = group: developmental, developmental / developmental malformation / bone / incomplete ossification
[39] = group: maternal, systemic / in life observation / clinical signs / alopecia + systemic / in life observation / clinical signs / blood around eyes and nose + …
[40] = systemic / clinical chemistry / calcium / calcium + systemic / clinical chemistry / protein / protein + systemic / in life observation / …
[41] = systemic / organ weight / liver / relative to body weight

SMILES: CNC(=O)Oc1cccc(N=CN(C)C)c1.Cl [Formetanate hydrochloride]
- LEL (rat [1]; [17]): 0.45 mg/kg/day
- NEL (rat [1]; [17]): < 0.45 mg/kg/day
- LOAEL (rat [1]; [18]): > 12 mg/kg/day
- NOAEL (rat [1]; [18]): ≥ 12 mg/kg/day
- LOAEL (rat [1]; group: systemic, systemic / in life observation / body weight / body weight): 12 mg/kg/day
- LEL (rat [1]; [19]): 12 mg/kg/day
- NEL (rat [1]; [19]): 2.3 mg/kg/day
- NOAEL (rat [1]; [19]): 2.3 mg/kg/day
- LEL (mouse [2]): 70 mg/kg/day
- LOAEL (mouse [2]): 70 mg/kg/day
- NEL (mouse [2]): 7 mg/kg/day
- NOAEL (mouse [2]): 7 mg/kg/day
- LEL (rabbit [3]; [20]): 15 mg/kg/day
- LOAEL (rabbit [3]; [20]): 15 mg/kg/day
- NEL (rabbit [3]; [20]): 5 mg/kg/day
- NOAEL (rabbit [3]; [20]): 5 mg/kg/day
- LEL (rabbit [3]; [21]): 15 mg/kg/day
- LOAEL (rabbit [3]; [21]): 15 mg/kg/day
- NEL (rabbit [3]; [22]): 5 mg/kg/day
- NOAEL (rabbit [3]; [22]): 5 mg/kg/day
- LEL (dog [4]; [23]): 1.74 mg/kg/day
- LOAEL (dog [4]; [23]): 1.74 mg/kg/day
- NEL (dog [4]; [23]): 0.37 mg/kg/day
- NOAEL (dog [4]; [23]): 0.37 mg/kg/day
- LEL (dog [4]; [24]): 1.74 mg/kg/day
- LOAEL (dog [4]; [24]): 1.74 mg/kg/day
- NEL (dog [4]; [24]): 0.37 mg/kg/day
- NOAEL (dog [4]; [24]): 0.37 mg/kg/day

SMILES: COc1cc(S(=O)(=O)[O-])c(C)cc1N=Nc1c(O)ccc2cc(S(=O)(=O)[O-])ccc12.[Na+].[Na+]
- LEL (mouse [5]; systemic / in life observation / food consumption / food consumption): 1880 mg/kg/day
- NEL (mouse [5]; systemic / in life observation / food consumption / food consumption + systemic / pathology microscopic / lymph node / lymphoma nos): 507 mg/kg/day
- LOAEL (mouse [5]; [25]): > 7320 mg/kg/day
- NOAEL (mouse [5]; [25]): ≥ 7320 mg/kg/day
- LEL (rat [6]): 200 mg/kg/day
- LOAEL (rat [6]): > 200 mg/kg/day
- NEL (rat [6]): 100 mg/kg/day
- NOAEL (rat [6]): ≥ 200 mg/kg/day
- LEL (rat [7]; [26]): 260 mg/kg/day
- LOAEL (rat [7]; [26]): > 260 mg/kg/day
- NEL (rat [7]; [26]): < 260 mg/kg/day
- NOAEL (rat [7]; [26]): ≥ 260 mg/kg/day
- LEL (rat [7]; [27]): 260 mg/kg/day
- LOAEL (rat [7]; [27]): > 260 mg/kg/day
- NEL (rat [7]; [27]): < 260 mg/kg/day
- NOAEL (rat [7]; [27]): ≥ 260 mg/kg/day
- LEL (mouse [8]): 2930 mg/kg/day
- LOAEL (mouse [8]): > 2930 mg/kg/day
- NEL (mouse [8]): 1420 mg/kg/day
- NOAEL (mouse [8]): ≥ 2930 mg/kg/day
- LEL (rat [9]; [28]): 1250 mg/kg/day
- NEL (rat [9]; [28]): < 1250 mg/kg/day
- LOAEL (rat [9]; [29]): > 5000 mg/kg/day
- NOAEL (rat [9]; [29]): ≥ 5000 mg/kg/day
- LEL (rat [9]; [30]): 1250 mg/kg/day
- LOAEL (rat [9]; [30]): > 5000 mg/kg/day
- NEL (rat [9]; [30]): < 1250 mg/kg/day
- NOAEL (rat [9]; [30]): ≥ 5000 mg/kg/day
- LEL (rat [9]; [31]): 1250 mg/kg/day
- LOAEL (rat [9]; [31]): > 5000 mg/kg/day
- NEL (rat [9]; [31]): < 1250 mg/kg/day
- NOAEL (rat [9]; [31]): ≥ 5000 mg/kg/day
- LEL (rat [10]): 701 mg/kg/day
- LOAEL (rat [10]): > 2830 mg/kg/day
- NEL (rat [10]): 180 mg/kg/day
- NOAEL (rat [10]): ≥ 2830 mg/kg/day

SMILES: C#CCOS(=O)OC1CCCCC1Oc1ccc(C(C)(C)C)cc1 (centres undefined) [Propargite]
- LEL (dog [11]): 38 mg/kg/day
- LOAEL (dog [11]): 38 mg/kg/day
- NEL (dog [11]): 5 mg/kg/day
- NOAEL (dog [11]): 5 mg/kg/day
- LEL (rabbit [12]; [32]): 10 mg/kg/day
- LOAEL (rabbit [12]; [32]): 10 mg/kg/day
- NEL (rabbit [12]; [32]): 8 mg/kg/day
- NOAEL (rabbit [12]; [32]): 8 mg/kg/day
- LEL (rabbit [12]; [33]): 8 mg/kg/day
- LOAEL (rabbit [12]; [33]): 8 mg/kg/day
- NEL (rabbit [12]; [33]): 6 mg/kg/day
- NOAEL (rabbit [12]; [33]): 6 mg/kg/day
- LEL (rat [13]; [34]): 40 mg/kg/day
- LOAEL (rat [13]; [34]): 40 mg/kg/day
- NEL (rat [13]; [34]): 20 mg/kg/day
- NOAEL (rat [13]; [34]): 20 mg/kg/day
- LEL (rat [13]; [35]): 20 mg/kg/day
- LOAEL (rat [13]; [35]): 20 mg/kg/day
- NEL (rat [13]; [35]): 4 mg/kg/day
- NOAEL (rat [13]; [35]): 4 mg/kg/day
- LEL (rabbit [14]; group: developmental, developmental / developmental malformation / bone / delayed ossification): 6 mg/kg/day
- LOAEL (rabbit [14]; [36]): > 18 mg/kg/day
- NEL (rabbit [14]; [36]): 2 mg/kg/day
- NOAEL (rabbit [14]; [36]): ≥ 18 mg/kg/day
- LEL (rabbit [14]; [37]): 2 mg/kg/day
- NEL (rabbit [14]; [37]): < 2 mg/kg/day
- LOAEL (rabbit [14]; group: maternal, systemic / in life observation / body weight / body weight gain + reproductive / offspring survival early / live fetuses / live fetuses): 6 mg/kg/day
- NOAEL (rabbit [14]; group: maternal, systemic / in life observation / body weight / body weight gain + reproductive / reproductive performance / implantations / implantations + …): 2 mg/kg/day
- LOAEL (rat [15]; group: developmental, developmental / developmental malformation / bone / absent + developmental / developmental malformation / bone / small): 25 mg/kg/day
- LEL (rat [15]; [38]): 6 mg/kg/day
- NEL (rat [15]; [38]): < 6 mg/kg/day
- NOAEL (rat [15]; group: developmental, developmental / developmental malformation / bone / incomplete ossification + developmental / developmental malformation / bone / absent + …): 6 mg/kg/day
- LEL (rat [15]; [39]): 105 mg/kg/day
- LOAEL (rat [15]; [39]): > 450 mg/kg/day
- NEL (rat [15]; [39]): 25 mg/kg/day
- NOAEL (rat [15]; [39]): ≥ 450 mg/kg/day
- LOAEL (rat [16]; [40]): 19.2 mg/kg/day
- NOAEL (rat [16]; [40]): 3.83 mg/kg/day
- LEL (rat [16]; [41]): 2.95 mg/kg/day
- NEL (rat [16]; [41]): < 2.95 mg/kg/day
